From US20230265151A1, “GIP/GLP1 CO-AGONIST COMPOUNDS” (priority 2020, published 2023)
Like-named read-outs stand apart in the source and are kept apart here.

Tests used:
Type in all cases: cell-based
hGLP-1R = hGLP-1R (Homo sapiens, UniProt P43220); assay: Functional cAMP formation (HTRF) in HEK-293 clonal cells expressing hGLP-1R, 0.1% bovine casein, without or with 1.0% human serum albumin; parameters: expressed in transfected cells; details: for EC50: hGLP-1R EC50, nM (SEM, n), cAMP, 37° C., 0.1% bovine casein (no human serum albumin), geometric mean; for Emax: percent of maximal response to GLP-1(7-36)NH2
hGLP-1R, sequence (P43220 24-463): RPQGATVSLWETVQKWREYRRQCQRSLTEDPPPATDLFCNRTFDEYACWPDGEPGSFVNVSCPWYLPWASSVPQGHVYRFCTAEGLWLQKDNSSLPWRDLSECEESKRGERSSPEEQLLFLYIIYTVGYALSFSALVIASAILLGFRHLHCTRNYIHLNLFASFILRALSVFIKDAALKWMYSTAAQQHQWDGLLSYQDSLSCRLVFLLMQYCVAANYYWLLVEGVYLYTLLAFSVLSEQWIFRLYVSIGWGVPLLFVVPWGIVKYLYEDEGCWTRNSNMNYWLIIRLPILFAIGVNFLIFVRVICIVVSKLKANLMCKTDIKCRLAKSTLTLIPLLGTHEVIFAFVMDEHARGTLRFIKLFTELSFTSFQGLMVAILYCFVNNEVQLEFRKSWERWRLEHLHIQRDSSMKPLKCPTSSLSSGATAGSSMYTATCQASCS
Outline: (§1)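 Readings of the HTRF 665/620 nm ratio, which falls as cAMP rises, were converted to nM cAMP using a standard curve after 30 min peptide exposure at 37° C.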

hGCGR = target: T1, hGCGR (Homo sapiens, UniProt P47871); assay: Functional cAMP formation (HTRF) in HEK-293 clonal cells expressing hGCGR, 0.1% bovine casein, without or with 1.0% human serum albumin; details: hGCGR EC50, nM (SEM, n), 37° C., geometric mean
T1 construct: expressed in transfected cells
T1 sequence (P47871 26-477): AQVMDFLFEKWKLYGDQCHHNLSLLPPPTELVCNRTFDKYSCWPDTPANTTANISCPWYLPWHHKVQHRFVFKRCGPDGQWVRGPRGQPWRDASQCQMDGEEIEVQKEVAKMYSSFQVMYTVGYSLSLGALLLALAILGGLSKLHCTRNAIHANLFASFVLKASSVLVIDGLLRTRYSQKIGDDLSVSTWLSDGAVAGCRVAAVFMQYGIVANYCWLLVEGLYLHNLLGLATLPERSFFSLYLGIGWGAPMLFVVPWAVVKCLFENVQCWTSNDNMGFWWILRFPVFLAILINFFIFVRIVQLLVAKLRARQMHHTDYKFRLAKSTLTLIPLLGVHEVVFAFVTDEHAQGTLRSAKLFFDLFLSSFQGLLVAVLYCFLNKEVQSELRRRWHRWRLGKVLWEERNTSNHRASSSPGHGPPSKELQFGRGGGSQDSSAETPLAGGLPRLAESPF
Outline: as §1

hGIPR = target: T2, hGIPR (Homo sapiens, UniProt P48546); assay: Functional cAMP formation (HTRF) in HEK-293 clonal cells expressing hGIPR, 0.1% bovine casein, without or with 1.0% human serum albumin; details: for Emax: percent of maximal response to GIP(1-42)NH2; for EC50: hGIPR EC50, nM (SEM, n), 37° C., geometric mean
T2 construct: expressed in transfected cells
T2 sequence (P48546 22-466): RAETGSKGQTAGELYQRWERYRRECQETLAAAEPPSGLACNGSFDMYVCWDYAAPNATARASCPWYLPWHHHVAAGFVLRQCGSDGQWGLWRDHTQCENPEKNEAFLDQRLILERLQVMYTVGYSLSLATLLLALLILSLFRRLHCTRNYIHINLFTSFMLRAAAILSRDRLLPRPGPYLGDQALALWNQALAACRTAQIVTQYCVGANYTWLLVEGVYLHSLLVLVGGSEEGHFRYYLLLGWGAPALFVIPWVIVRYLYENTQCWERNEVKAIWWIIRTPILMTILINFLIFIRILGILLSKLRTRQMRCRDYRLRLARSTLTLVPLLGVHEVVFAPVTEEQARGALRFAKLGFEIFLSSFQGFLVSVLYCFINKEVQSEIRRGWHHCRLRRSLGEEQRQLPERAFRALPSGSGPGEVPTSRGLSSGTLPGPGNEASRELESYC
Outline: as §1

[1] = 0.1% bovine casein and 1.0% human serum albumin
[2] = cAMP, 0.1% bovine casein (no human serum albumin)
[3] = HEK293, read-out: hGIPR Emax, % ± SEM, 0.1% bovine casein and 1.0% human serum albumin, 37° C.
[4] = HEK293, read-out: hGLP-1R Emax, % ± SEM, cAMP, 37° C., 0.1% bovine casein, arithmetic mean
[5] = HEK293, read-out: hGIPR Emax, % ± SEM, cAMP, 37° C., 0.1% bovine casein, arithmetic mean
[6] = HEK293, read-out: hGLP-1R Emax, % ± SEM, 0.1% bovine casein and 1.0% human serum albumin, 37° C.

Row | Structure (SMILES) | EC50 (hGLP-1R) [nM] | EC50 (hGCGR; [1]) [nM] | EC50 (hGCGR; [2]) [nM] | Emax (hGIPR; [3]) [%] | EC50 (hGIPR; [1]) [nM] | EC50 (hGIPR; [2]) [nM] | Emax (hGLP-1R; [4]) [%] | Emax (hGIPR; [5]) [%] | Emax (hGLP-1R; [6]) [%]
1 | CC[C@H](C)[C@H](NC(=O)[C@H](CCCN)NC(=O)[C@H](CC(=O)O)NC(=O)[C@H](CC(C)C)NC(=O)[C@](C)(CC(C)C)NC(=O)[C@@H](NC(=O)[C@](C)(CO)NC(=O)[C@@H](NC(=O)[C@H](CC(=O)O)NC(=O)[C@H](CO)NC(=O)[C@@H](NC(=O)[C@](C)(Cc1ccccc1F)NC(=O)[C@@H](NC(=O)CNC(=O)[C@H](CCC(=O)O)NC(=O)C(C)(C)NC(=O)[C@@H](N)Cc1ccc(O)cc1)[C@@H](C)O)[C@@H](C)O)C(C)C)[C@@H](C)CC)C(=O)N[C@@H](C)C(=O)N[C@@H](CCC(N)=O)C(=O)NC(C)(C)C(=O)N[C@@H](CCC(=O)O)C(=O)N[C@@H](Cc1ccccc1)C(=O)N[C@H](C(=O)N[C@@H](CCCCNC(=O)COCCOCCNC(=O)COCCOCCNC(=O)CC[C@H](NC(=O)CCCCCCCCCOc1ccc(C(=O)O)cc1)C(=O)O)C(=O)N[C@@](C)(Cc1ccc(O)cc1)C(=O)N[C@@H](CC(C)C)C(=O)N[C@H](C(=O)N[C@@H](CCCCNC(=O)COCCOCCNC(=O)COCCOCCNC(=O)CC[C@H](NC(=O)CCCCCCCCCOc1ccc(C(=O)O)cc1)C(=O)O)C(=O)NCC(=O)NCC(=O)N1CCC[C@H]1C(=O)N[C@@H](CO)C(=O)N[C@@H](CO)C(=O)NCC(=O)N[C@@H](C)C(=O)N1CCC[C@H]1C(=O)N1CCC[C@H]1C(=O)N1CCC[C@H]1C(=O)N[C@@H](CO)C(N)=O)[C@@H](C)CC)[C@@H](C)CC [Example 309] | 0.527 | > 9950 | > 9950 | 95.3 | 6.08 | 0.0212 | – | – | –
2 | CC[C@H](C)[C@H](NC(=O)[C@H](CCCN)NC(=O)[C@H](CC(=O)O)NC(=O)[C@H](CC(C)C)NC(=O)[C@](C)(CC(C)C)NC(=O)[C@@H](NC(=O)[C@H](CO)NC(=O)[C@H](CCc1ccc(O)cc1)NC(=O)[C@H](CC(=O)O)NC(=O)[C@H](CO)NC(=O)[C@@H](NC(=O)[C@](C)(Cc1ccccc1F)NC(=O)[C@@H](NC(=O)CNC(=O)[C@H](CCC(=O)O)NC(=O)C(C)(C)NC(=O)[C@@H](N)Cc1ccc(O)cc1)[C@@H](C)O)[C@@H](C)O)[C@@H](C)CC)C(=O)N[C@@H](C)C(=O)N[C@@H](CCC(N)=O)C(=O)NC(C)(C)C(=O)N[C@@H](CCC(=O)O)C(=O)N[C@@H](Cc1ccccc1)C(=O)N[C@H](C(=O)N[C@@H](CCCCNC(=O)COCCOCCNC(=O)COCCOCCNC(=O)CC[C@H](NC(=O)CCCCCCCCCOc1ccc(C(=O)O)cc1)C(=O)O)C(=O)N[C@@](C)(Cc1ccc(O)cc1)C(=O)N[C@@H](CC(C)C)C(=O)N[C@H](C(=O)N[C@@H](CCCCNC(=O)COCCOCCNC(=O)COCCOCCNC(=O)CC[C@H](NC(=O)CCCCCCCCCOc1ccc(C(=O)O)cc1)C(=O)O)C(=O)NCC(=O)NCC(=O)N1CCC[C@H]1C(=O)N[C@@H](CO)C(=O)N[C@@H](CO)C(=O)NCC(=O)N[C@@H](C)C(=O)N1CCC[C@H]1C(=O)N1CCC[C@H]1C(=O)N1CCC[C@H]1C(=O)N[C@@H](CO)C(N)=O)[C@@H](C)CC)[C@@H](C)CC [Example 310] | 0.347 | > 9950 | > 9950 | 83.9 | – | 0.025 | 105 | – | –
3 | CC[C@H](C)[C@H](NC(=O)[C@H](CCCN)NC(=O)[C@H](CC(=O)O)NC(=O)[C@H](CC(C)C)NC(=O)[C@](C)(CC(C)C)NC(=O)[C@@H](NC(=O)C(C)(C)NC(=O)[C@H](Cc1ccncc1)NC(=O)[C@H](CC(=O)O)NC(=O)[C@H](CO)NC(=O)[C@@H](NC(=O)[C@](C)(Cc1ccccc1F)NC(=O)[C@@H](NC(=O)CNC(=O)[C@H](CCC(=O)O)NC(=O)C(C)(C)NC(=O)[C@@H](N)Cc1ccc(O)cc1)[C@@H](C)O)[C@@H](C)O)[C@@H](C)CC)C(=O)N[C@@H](C)C(=O)N[C@@H](CCC(N)=O)C(=O)NC(C)(C)C(=O)N[C@@H](CCC(=O)O)C(=O)N[C@@H](Cc1ccccc1)C(=O)N[C@H](C(=O)N[C@@H](CCCCNC(=O)COCCOCCNC(=O)COCCOCCNC(=O)CC[C@H](NC(=O)CCCCCCCCCCOc1ccc(C(=O)O)cc1)C(=O)O)C(=O)N[C@@](C)(Cc1ccc(O)cc1)C(=O)N[C@@H](CC(C)C)C(=O)N[C@H](C(=O)N[C@@H](CCCCNC(=O)COCCOCCNC(=O)COCCOCCNC(=O)CC[C@H](NC(=O)CCCCCCCCCCOc1ccc(C(=O)O)cc1)C(=O)O)C(=O)NCC(=O)NCC(=O)N1CCC[C@H]1C(=O)N[C@@H](CO)C(=O)N[C@@H](CO)C(=O)NCC(=O)N[C@@H](C)C(=O)N1CCC[C@H]1C(=O)N1CCC[C@H]1C(=O)N1CCC[C@H]1C(=O)N[C@@H](CO)C(N)=O)[C@@H](C)CC)[C@@H](C)CC [Example 311] | 0.791 | > 9950 | > 9950 | 98.3 | 2.16 | 0.0243 | 110 | 105 | –
4 | CC[C@H](C)[C@H](NC(=O)[C@H](CCCN)NC(=O)[C@H](CC(=O)O)NC(=O)[C@H](CC(C)C)NC(=O)[C@](C)(CC(C)C)NC(=O)[C@@H](NC(=O)C(C)(C)NC(=O)[C@H](Cc1ccc(O)cc1)NC(=O)[C@H](CC(=O)O)NC(=O)[C@H](CO)NC(=O)[C@@H](NC(=O)[C@](C)(Cc1ccccc1F)NC(=O)[C@@H](NC(=O)CNC(=O)[C@H](CCC(=O)O)NC(=O)C(C)(C)NC(=O)[C@@H](N)Cc1ccc(O)cc1)[C@@H](C)O)[C@@H](C)O)[C@@H](C)CC)C(=O)N[C@@H](C)C(=O)N[C@@H](CCC(N)=O)C(=O)NC(C)(C)C(=O)N[C@@H](CCC(=O)O)C(=O)N[C@@H](Cc1ccccc1)C(=O)N[C@H](C(=O)N[C@@H](CCCCNC(=O)COCCOCCNC(=O)COCCOCCNC(=O)CC[C@H](NC(=O)CCCCCCCCCCOc1ccc(C(=O)O)cc1)C(=O)O)C(=O)N[C@@](C)(Cc1ccc(O)cc1)C(=O)N[C@@H](CC(C)C)C(=O)N[C@H](C(=O)N[C@@H](CCCCNC(=O)COCCOCCNC(=O)COCCOCCNC(=O)CC[C@H](NC(=O)CCCCCCCCCCOc1ccc(C(=O)O)cc1)C(=O)O)C(=O)NCC(=O)NCC(=O)N1CCC[C@H]1C(=O)N[C@@H](CO)C(=O)N[C@@H](CO)C(=O)NCC(=O)N[C@@H](C)C(=O)N1CCC[C@H]1C(=O)N1CCC[C@H]1C(=O)N1CCC[C@H]1C(=O)N[C@@H](CO)C(N)=O)[C@@H](C)CC)[C@@H](C)CC [Example 312] | 0.663 | > 9950 | > 9950 | 89.5 | – | 0.00757 | – | 105 | 112
5 | CC[C@H](C)[C@H](NC(=O)[C@H](CCCN)NC(=O)[C@H](CC(=O)O)NC(=O)[C@H](CC(C)C)NC(=O)[C@](C)(CC(C)C)NC(=O)[C@@H](NC(=O)C(C)(C)NC(=O)[C@@H](NC(=O)[C@H](CC(=O)O)NC(=O)[C@H](CO)NC(=O)[C@@H](NC(=O)[C@](C)(Cc1ccccc1F)NC(=O)[C@@H](NC(=O)CNC(=O)[C@H](CCC(=O)O)NC(=O)C(C)(C)NC(=O)[C@@H](N)Cc1ccc(O)cc1)[C@@H](C)O)[C@@H](C)O)C(C)C)[C@@H](C)CC)C(=O)N[C@@H](C)C(=O)N[C@@H](CCC(N)=O)C(=O)NC(C)(C)C(=O)N[C@@H](CCC(=O)O)C(=O)N[C@@H](Cc1ccccc1)C(=O)N[C@H](C(=O)N[C@@H](CCCCNC(=O)COCCOCCNC(=O)COCCOCCNC(=O)CC[C@H](NC(=O)CCCCCCCCCCOc1ccc(C(=O)O)cc1)C(=O)O)C(=O)N[C@@](C)(Cc1ccc(O)cc1)C(=O)N[C@@H](CC(C)C)C(=O)N[C@H](C(=O)N[C@@H](CCCCNC(=O)COCCOCCNC(=O)COCCOCCNC(=O)CC[C@H](NC(=O)CCCCCCCCCCOc1ccc(C(=O)O)cc1)C(=O)O)C(=O)NCC(=O)NCC(=O)N1CCC[C@H]1C(=O)N[C@@H](CO)C(=O)N[C@@H](CO)C(=O)NCC(=O)N[C@@H](C)C(=O)N1CCC[C@H]1C(=O)N1CCC[C@H]1C(=O)N1CCC[C@H]1C(=O)N[C@@H](CO)C(N)=O)[C@@H](C)CC)[C@@H](C)CC [Example 313] | 1.13 | > 9950 | > 9950 | – | – | 0.00781 | – | – | 95
